This note sets out measurements from the supplement of paper PMC10307832.

Common to all, as to assay: relative viability (nuclei count vs DMSO), 5 days (fraction); higher = more cells survive
Compound in test [1]: C1=CC=C2C(=C1)C=CC(=C2SSC3=C(C=CC4=CC=CC=C43)O)O [IPA-3] + CS(=O)(=O)CCNCc1ccc(-c2ccc3ncnc(Nc4ccc(OCc5cccc(F)c5)c(Cl)c4)c3c2)o1 [Lapatinib] (partner 2 µM)
In a few lines:
(§1)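 Lung cancer cell lines in 1536-well plates got either a single drug or a fixed anchor-drug dose together with five library-drug doses (not always all listed) in √10 steps, by pin tool, on the day after seeding. Nuclei were counted after 5 days, and relative viability is the treated-to-vehicle ratio of nuclei counts. Values are medians of duplicate plates.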

Compound in test [2]: Cn1c(Nc2ccc(C(F)(F)F)cc2)nc2cc(Oc3ccnc(-c4ncc(C(F)(F)F)[nH]4)c3)ccc21 [RAF265] + CCNC(=O)c1noc(-c2cc(C(C)C)c(O)cc2O)c1-c1ccc(CN2CCOCC2)cc1 [Luminespib] (partner 0.01 µM)
In a few lines:
as §1

Compound in test [3]: Cn1c(Nc2ccc(C(F)(F)F)cc2)nc2cc(Oc3ccnc(-c4ncc(C(F)(F)F)[nH]4)c3)ccc21 [RAF265] + C[C@@H](Oc1cc(-c2cnn(C3CCNCC3)c2)cnc1N)c1c(Cl)ccc(F)c1Cl [Crizotinib] (partner 1 µM)
In a few lines:
as §1

Compound in test [4]: Cc1ccc(-n2nc(C(C)(C)C)cc2NC(=O)Nc2ccc(OCCN3CCOCC3)c3ccccc23)cc1 [Doramapimod] + O=C(CCCCCCC(=O)Nc1ccccc1)NO [Vorinostat] (partner 1 µM)
In a few lines:
as §1

For UMC-11, the relative viability in test [1] (first compound 0.2 µM) was 0.944; in test [1] (first compound 0.6325 µM), 1.1; in test [1] (first compound 2 µM) it was 0.956; in test [1] (first compound 6.325 µM), 0.804; in test [1] (first compound 20 µM), 1.06; in test [2] (first compound 0.01 µM), 0.984. Also, the relative viability was 1.01 in test [2] (first compound 0.03162 µM); 1.06 in test [2] (first compound 0.1 µM); 1.01 in test [2] (first compound 0.3162 µM); 0.936 in test [2] (first compound 1 µM); 0.676 in test [3] (first compound 0.01 µM); 0.604 in test [3] (first compound 0.03162 µM). In addition, the relative viability in test [3] (first compound 0.1 µM) was 0.602; in test [3] (first compound 0.3162 µM) it was 0.648; in test [3] (first compound 1 µM) it was 0.501; in test [4] (first compound 0.02 µM), 0.371; in test [4] (first compound 0.06325 µM), 0.33; in test [4] (first compound 0.2 µM), 0.423. For the same cell line, the relative viability in test [4] (first compound 0.6325 µM) amounted to 0.316; in test [4] (first compound 2 µM) it was 0.379.
